Patent US9617263B2, “Phenyl-triazolo-pyridine compounds” (Eli Lilly and Company, priority 2014, dated 2017)

Legend:
Type in all cases: cell-based
PPARδ = target: T1, PPARδ (Homo sapiens, UniProt Q03181); experiment: Gal4 PPARδ reporter (CTF) functional assay in CV1 cells; details: examined up to 10 M; versus 10 μM PPAR agonist reference compound
T1 construct: expressed in transfected cells; host or cells: CV1 (African green monkey kidney)
T1 sequence (Q03181 211-439 limits assumed): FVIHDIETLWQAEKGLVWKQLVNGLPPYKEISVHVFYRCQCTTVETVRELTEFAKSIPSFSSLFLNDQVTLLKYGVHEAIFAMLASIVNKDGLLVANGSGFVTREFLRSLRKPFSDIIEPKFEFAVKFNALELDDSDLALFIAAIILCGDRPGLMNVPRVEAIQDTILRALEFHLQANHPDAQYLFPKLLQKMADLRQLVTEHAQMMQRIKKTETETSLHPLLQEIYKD
Method: (§1) Because GPR40 is known to be activated by ligands to PPARγ, exemplified compounds are examined in Gal4 PPARα, Gal4 PPARδ, and PPARγ reporter assays to determine the selectivity of exemplified compounds for PPAR receptors. CV1 cells, which are derived from the renal tissue of an African green monkey, are transfected with various receptor and reporter plasmids using Fugene. […] After 24 hours incubation with compounds, cells are lysed and luciferase activity is determined as a measure of receptor activation by luminescence. […] The maximum percent stimulation is determined versus maximum stimulation obtained with 10 μM of an appropriate PPAR agonist reference compound, 2-methyl-2-(4-{2-methyl-3-[2-(phenylcarbonyl)-4-(trifluoromethoxy)phenoxy]propoxy}phenoxy)propanoic acid. […] Efficacy was negative for PPARα, PPARδ, and PPARγ is detected with the compound of Example 1 when examined up to […] in the specific PPAR co-transfection (CTF) functional assays described above. […]

PPARγ = target: T2, PPARγ (Homo sapiens, UniProt P37231); experiment: PPARγ reporter (CTF) functional assay in CV1 cells; details: examined up to 10 M; versus 10 μM PPAR agonist reference compound
T2 construct: expressed in transfected cells; host or cells: CV1 (African green monkey kidney)
T2 sequence (P37231 1-505): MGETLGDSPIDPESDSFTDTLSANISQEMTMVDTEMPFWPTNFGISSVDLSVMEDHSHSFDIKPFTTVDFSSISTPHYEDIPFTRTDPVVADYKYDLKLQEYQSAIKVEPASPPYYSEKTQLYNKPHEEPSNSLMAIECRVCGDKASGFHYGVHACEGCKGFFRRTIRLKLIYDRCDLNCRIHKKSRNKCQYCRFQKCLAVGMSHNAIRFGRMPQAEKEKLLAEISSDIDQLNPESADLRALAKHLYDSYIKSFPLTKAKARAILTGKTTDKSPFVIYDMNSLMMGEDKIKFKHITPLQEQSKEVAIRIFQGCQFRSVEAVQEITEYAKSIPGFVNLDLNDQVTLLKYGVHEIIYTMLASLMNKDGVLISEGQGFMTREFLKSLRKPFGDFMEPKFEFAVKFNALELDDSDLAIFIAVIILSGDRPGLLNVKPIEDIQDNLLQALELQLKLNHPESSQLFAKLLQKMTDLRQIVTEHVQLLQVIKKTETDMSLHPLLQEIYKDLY
T2 sequence (P19793 1-462 partner): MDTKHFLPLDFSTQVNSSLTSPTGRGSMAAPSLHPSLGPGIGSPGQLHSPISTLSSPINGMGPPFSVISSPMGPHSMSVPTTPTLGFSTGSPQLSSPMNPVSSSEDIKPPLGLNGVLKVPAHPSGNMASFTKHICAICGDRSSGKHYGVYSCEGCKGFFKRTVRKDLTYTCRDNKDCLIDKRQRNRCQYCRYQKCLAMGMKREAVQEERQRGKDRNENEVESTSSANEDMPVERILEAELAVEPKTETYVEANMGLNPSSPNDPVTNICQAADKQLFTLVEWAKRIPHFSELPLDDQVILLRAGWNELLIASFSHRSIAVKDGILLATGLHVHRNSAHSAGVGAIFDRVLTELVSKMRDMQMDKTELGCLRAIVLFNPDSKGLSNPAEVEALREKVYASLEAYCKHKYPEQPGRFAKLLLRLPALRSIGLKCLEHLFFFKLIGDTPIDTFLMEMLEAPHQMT
Method: as §1

mGPR40 = target: T3, mGPR40 (Mus musculus, UniProt Q76JU9); experiment: Mouse beta-arrestin agonist assay with 1% FBS (PathHunter, U2OS mFFAR1)
T3 construct: host or cells: U2OS
Text: Human embryonic kidney (hEK293)-hFFAR1 cells are purchased from DiscoveRx. Human osteosarcoma (U2OS) cells expressing mFFAR1 are developed by DiscoveRX. These cells co-express the Prolink (PK)-tagged GPR40 and the Enzyme Acceptor (EA)-tagged beta-arrestin fusion proteins. If activation of the GPR40 stimulates beta-arrestin recruitment, it would force complementation of the beta galactosidase (B-gal) enzyme fragments, forming a B-gal enzyme that generates a chemiluminescent signal using the DiscoveRx PathHunter detection kit. Cells are incubated overnight at 5,000 cells/well in 384 well plates in culture media containing 1% FBS (fetal bovine serum). Serial diluted compounds in DMSO (2× dilutions to generate 20 concentrations) are step down diluted in culture media containing 1% FBS (fetal bovine serum) and added to cells with a final top concentration starting of 100 μM. After addition of compounds, cells are incubated for 90 min at 37° C. in 5% CO2 incubator, and DiscoveRX kit detection reagents are added. Measurement of the chemiluminescent signal is ascertained with the Envision reader, after a 1-hour incubation at room temperature. Data are fit to a 4 parameter-fit logistics to determine EC50 values; % activity is measured versus maximum response to TAK875 at 1 μM.

T3 sequence (Q76JU9 whole entry): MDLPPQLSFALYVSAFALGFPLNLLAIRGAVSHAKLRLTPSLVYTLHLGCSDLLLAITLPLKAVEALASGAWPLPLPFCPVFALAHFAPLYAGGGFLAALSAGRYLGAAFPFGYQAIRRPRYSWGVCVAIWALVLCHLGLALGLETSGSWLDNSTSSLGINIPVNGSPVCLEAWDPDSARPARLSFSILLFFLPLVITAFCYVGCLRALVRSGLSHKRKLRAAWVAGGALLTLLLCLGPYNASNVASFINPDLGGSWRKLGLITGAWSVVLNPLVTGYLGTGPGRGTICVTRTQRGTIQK
T3 sequence (P32121 whole entry partner): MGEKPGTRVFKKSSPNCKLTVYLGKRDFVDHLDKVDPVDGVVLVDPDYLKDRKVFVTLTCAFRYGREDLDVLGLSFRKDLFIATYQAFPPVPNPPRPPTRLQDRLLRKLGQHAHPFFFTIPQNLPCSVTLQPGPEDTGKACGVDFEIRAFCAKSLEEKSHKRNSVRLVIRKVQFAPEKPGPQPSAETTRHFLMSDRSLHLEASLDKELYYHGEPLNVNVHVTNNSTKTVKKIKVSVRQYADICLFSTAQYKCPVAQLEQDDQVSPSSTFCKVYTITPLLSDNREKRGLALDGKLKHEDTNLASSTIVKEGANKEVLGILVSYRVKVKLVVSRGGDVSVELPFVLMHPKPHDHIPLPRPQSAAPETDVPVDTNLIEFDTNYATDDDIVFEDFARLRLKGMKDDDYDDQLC

Structure (SMILES): CC#C[C@@H](CC(=O)O)c1ccc(OCc2cc(-c3ccccc3C)cn3ncnc23)cc1 [Example 1, (S)-3-[4-(6-o-Tolyl-[1,2,4]triazolo[1,5-a]pyridin-8-ylmethoxy)-phenyl]-hex-4-ynoic acid]
- Efficacy for PPARδ (PPARδ): negative (Efficacy of <20% is considered negative)
- Efficacy for PPARγ (PPARγ): negative (Efficacy of <20% is considered negative)
- EC50 (mGPR40; 1% FBS, 90 min, read-out: mGPR40 b-arrestin EC50): 4.02 nM
- mGPR40 b-arrestin % stimulation max (FA) (mGPR40; versus maximum response to TAK875 at 1 μM): 160%
